In patent publication US5112595A, “99MTC(III) myocardial imaging agents and method of use” (Mallinckrodt Medical, Inc., priority 1990, dated 1992):

Assay: Biodistribution of Tc-99m (III) complexes in guinea pigs
Format: in vivo
Source text: Biodistribution Data of Selected Tc-99m (III) Complexes in Guinea Pigs

For “trans-[1,2-bis[dihydro-2,2,5,5-tetramethyl-3(2H)furanone-4-methyleneamino]ethane]bis-[tris(3-methoxypropyl)phosphine]technetium-99 m(III) [Complex I]”, the “% Heart uptake” value (5 min) was 0.8 %Injected dose/Organ, the “% Heart uptake” value (60 min) was 0.9 %Injected dose/Organ and the Heart/Blood (ratio at 5 min) was 4.6. It also gave a Heart/Liver (ratio at 5 min) of 1.5, a Heart/Blood (ratio at 60 min) of 35.6 and a Heart/Liver (ratio at 60 min) of 6.6.

In the case of “trans-[1,2-bis[dihydro-2,2,5,5-tetramethyl-3(2H)furanone-4-methyleneamino]ethane]bis-tris(2-(2-(1,3-dioxanyl))]ethylphosphine]technetium-99m(III) [Complex IV]”, the “% Heart uptake” value (5 min) is reported as 0.8 %Injected dose/Organ, the “% Heart uptake” value (60 min) is reported as 0.9 %Injected dose/Organ and the Heart/Blood (ratio at 5 min) is reported as 5.4. It also gave a Heart/Liver (ratio at 5 min) of 1.2, a Heart/Blood (ratio at 60 min) of 58.6 and a Heart/Liver (ratio at 60 min) of 3.0.

For “trans-[1,2-bis[dihydro-2,2,5,5-tetramethyl-3(2H)furanthione-4-methyleneamino]ethane]-bis[tris(3-methoxypropyl)phosphine]technetium-99m (III) [Complex III]”, the “% Heart uptake” value (5 min) was 1.1 %Injected dose/Organ, the “% Heart uptake” value (60 min) was 1.0 %Injected dose/Organ and the Heart/Blood (ratio at 5 min) was 5.9. The Heart/Liver (ratio at 5 min) was 0.9, the Heart/Blood (ratio at 60 min) was 3.5 and the Heart/Liver (ratio at 60 min) was 1.5.

For “trans-[1-[dihydro-2,2,5,5-tetramethyl-3(2H)furanthione-4-methyleneamino]-2-[dihydro-2,2,5,5-tetramethyl-3(2H)furanone-4-methyleneaminoethane]bis[tris(3-methoxypropyl)phosphine]technetium99 m(III) [Complex II]”, the “% Heart uptake” value (5 min) was 0.9 %Injected dose/Organ, the “% Heart uptake” value (60 min) was 0.8 %Injected dose/Organ and the Heart/Blood (ratio at 5 min) was 6.1. It also gave a Heart/Liver (ratio at 5 min) of 1.6, a Heart/Blood (ratio at 60 min) of 26.5 and a Heart/Liver (ratio at 60 min) of 5.6.
